Tested on: 786-0
Assay: Anticancer activity against human 786-0 cells assessed as cell growth inhibition measured after 48 hrs by sulforhodamine B assay
Format: functional
Conditions: 48 h

Row | Compound | GI50
1 | CCOC(=O)c1nn(-c2ccc(Cl)cc2)c(-c2ccc([N+](=O)[O-])cc2)c1CNC(C)(C)C | 51.2 µM
2 | CCOC(=O)c1nn(-c2ccccc2)c(-c2ccc([N+](=O)[O-])cc2)c1CNC(C)(C)C | > 546 µM
3 | CCOC(=O)c1nn(-c2ccccc2)c(-c2ccc(OC)cc2)c1CNC(C)(C)C | 166 µM
4 | CCOC(=O)c1nn(-c2ccccc2)c(-c2ccc(Cl)cc2)c1CNC(C)(C)C | > 559 µM
5 | CCOC(=O)c1nn(-c2ccc(Cl)cc2)c(-c2ccc(Br)cc2)c1CNC(C)(C)C | > 476 µM
6 | CCOC(=O)c1nn(-c2ccc(Cl)cc2)c(-c2ccc(OC)cc2)c1CNC(C)(C)C | > 524 µM
7 | CCOC(=O)c1nn(-c2ccccc2)c(-c2ccc(Br)cc2)c1CNC(C)(C)C | 83.9 µM
8 | CCOC(=O)c1nn(-c2ccccc2)c(-c2ccc(F)cc2)c1CNC(C)(C)C | 319 µM

Tested on: NCI-H460
Assay: Anticancer activity against human NCI-H460 cells assessed as cell growth inhibition measured after 48 hrs by sulforhodamine B assay
Format: functional
Conditions: 48 h

Row | Compound | GI50
9 | CCOC(=O)c1nn(-c2ccc(Cl)cc2)c(-c2ccc([N+](=O)[O-])cc2)c1CNC(C)(C)C | 52.8 µM
10 | CCOC(=O)c1nn(-c2ccccc2)c(-c2ccc([N+](=O)[O-])cc2)c1CNC(C)(C)C | 327 µM
11 | CCOC(=O)c1nn(-c2ccccc2)c(-c2ccc(OC)cc2)c1CNC(C)(C)C | 148 µM
12 | CCOC(=O)c1nn(-c2ccccc2)c(-c2ccc(Cl)cc2)c1CNC(C)(C)C | > 559 µM
13 | CCOC(=O)c1nn(-c2ccc(Cl)cc2)c(-c2ccc(Br)cc2)c1CNC(C)(C)C | > 476 µM
14 | CCOC(=O)c1nn(-c2ccc(Cl)cc2)c(-c2ccc(OC)cc2)c1CNC(C)(C)C | > 524 µM
15 | CCOC(=O)c1nn(-c2ccccc2)c(-c2ccc(Br)cc2)c1CNC(C)(C)C | 118 µM
16 | CCOC(=O)c1nn(-c2ccccc2)c(-c2ccc(F)cc2)c1CNC(C)(C)C | 179 µM

Tested on: OVCAR-3
Assay: Anticancer activity against human OVCAR-3 cells assessed as cell growth inhibition measured after 48 hrs by sulforhodamine B assay
Format: functional
Conditions: 48 h

Row | Compound | GI50
17 | CCOC(=O)c1nn(-c2ccc(Cl)cc2)c(-c2ccc([N+](=O)[O-])cc2)c1CNC(C)(C)C | 16.1 µM
18 | CCOC(=O)c1nn(-c2ccccc2)c(-c2ccc([N+](=O)[O-])cc2)c1CNC(C)(C)C | 288 µM
19 | CCOC(=O)c1nn(-c2ccccc2)c(-c2ccc(OC)cc2)c1CNC(C)(C)C | 17.1 µM
20 | CCOC(=O)c1nn(-c2ccccc2)c(-c2ccc(Cl)cc2)c1CNC(C)(C)C | > 559 µM
21 | CCOC(=O)c1nn(-c2ccc(Cl)cc2)c(-c2ccc(Br)cc2)c1CNC(C)(C)C | > 476 µM
22 | CCOC(=O)c1nn(-c2ccc(Cl)cc2)c(-c2ccc(OC)cc2)c1CNC(C)(C)C | > 524 µM
23 | CCOC(=O)c1nn(-c2ccccc2)c(-c2ccc(Br)cc2)c1CNC(C)(C)C | 2.91 µM
24 | CCOC(=O)c1nn(-c2ccccc2)c(-c2ccc(F)cc2)c1CNC(C)(C)C | 92.1 µM

Tested on: U-251
Assay: Anticancer activity against human U-251 cells assessed as cell growth inhibition measured after 48 hrs by sulforhodamine B assay
Format: functional
Conditions: 48 h

Row | Compound | GI50
25 | CCOC(=O)c1nn(-c2ccc(Cl)cc2)c(-c2ccc([N+](=O)[O-])cc2)c1CNC(C)(C)C | 340 µM
26 | CCOC(=O)c1nn(-c2ccccc2)c(-c2ccc([N+](=O)[O-])cc2)c1CNC(C)(C)C | > 546 µM
27 | CCOC(=O)c1nn(-c2ccccc2)c(-c2ccc(OC)cc2)c1CNC(C)(C)C | 527 µM
28 | CCOC(=O)c1nn(-c2ccccc2)c(-c2ccc(Cl)cc2)c1CNC(C)(C)C | > 559 µM
29 | CCOC(=O)c1nn(-c2ccc(Cl)cc2)c(-c2ccc(Br)cc2)c1CNC(C)(C)C | > 476 µM
30 | CCOC(=O)c1nn(-c2ccc(Cl)cc2)c(-c2ccc(OC)cc2)c1CNC(C)(C)C | > 524 µM
31 | CCOC(=O)c1nn(-c2ccccc2)c(-c2ccc(Br)cc2)c1CNC(C)(C)C | 71.9 µM
32 | CCOC(=O)c1nn(-c2ccccc2)c(-c2ccc(F)cc2)c1CNC(C)(C)C | > 580 µM

Tested on: HT-29
Assay: Anticancer activity against human HT-29 cells assessed as cell growth inhibition measured after 48 hrs by sulforhodamine B assay
Format: functional
Conditions: 48 h

Row | Compound | GI50
33 | CCOC(=O)c1nn(-c2ccc(Cl)cc2)c(-c2ccc([N+](=O)[O-])cc2)c1CNC(C)(C)C | 40.8 µM
34 | CCOC(=O)c1nn(-c2ccccc2)c(-c2ccc([N+](=O)[O-])cc2)c1CNC(C)(C)C | 35.1 µM
35 | CCOC(=O)c1nn(-c2ccccc2)c(-c2ccc(OC)cc2)c1CNC(C)(C)C | 44.2 µM
36 | CCOC(=O)c1nn(-c2ccccc2)c(-c2ccc(Cl)cc2)c1CNC(C)(C)C | > 559 µM
37 | CCOC(=O)c1nn(-c2ccc(Cl)cc2)c(-c2ccc(Br)cc2)c1CNC(C)(C)C | > 476 µM
38 | CCOC(=O)c1nn(-c2ccc(Cl)cc2)c(-c2ccc(OC)cc2)c1CNC(C)(C)C | > 524 µM
39 | CCOC(=O)c1nn(-c2ccccc2)c(-c2ccc(Br)cc2)c1CNC(C)(C)C | 21.8 µM
40 | CCOC(=O)c1nn(-c2ccccc2)c(-c2ccc(F)cc2)c1CNC(C)(C)C | 29.9 µM

Tested on: HaCaT
Assay: Cytotoxicity against human HaCaT cells assessed as cell growth inhibition measured after 48 hrs by sulforhodamine B assay
Format: cell-based
Conditions: hacat, 48 h

Row | Compound | GI50
41 | CCOC(=O)c1nn(-c2ccc(Cl)cc2)c(-c2ccc([N+](=O)[O-])cc2)c1CNC(C)(C)C | 145 µM
42 | CCOC(=O)c1nn(-c2ccccc2)c(-c2ccc([N+](=O)[O-])cc2)c1CNC(C)(C)C | 130 µM
43 | CCOC(=O)c1nn(-c2ccccc2)c(-c2ccc(OC)cc2)c1CNC(C)(C)C | 19.2 µM
44 | CCOC(=O)c1nn(-c2ccccc2)c(-c2ccc(Cl)cc2)c1CNC(C)(C)C | > 559 µM
45 | CCOC(=O)c1nn(-c2ccc(Cl)cc2)c(-c2ccc(Br)cc2)c1CNC(C)(C)C | > 476 µM
46 | CCOC(=O)c1nn(-c2ccc(Cl)cc2)c(-c2ccc(OC)cc2)c1CNC(C)(C)C | > 524 µM
47 | CCOC(=O)c1nn(-c2ccccc2)c(-c2ccc(Br)cc2)c1CNC(C)(C)C | 61.7 µM
48 | CCOC(=O)c1nn(-c2ccccc2)c(-c2ccc(F)cc2)c1CNC(C)(C)C | 32.9 µM

Tested on: MCF7
Assay: Anticancer activity against human MCF7 cells assessed as cell growth inhibition measured after 48 hrs by sulforhodamine B assay
Format: functional
Conditions: 48 h

Row | Compound | GI50
49 | CCOC(=O)c1nn(-c2ccc(Cl)cc2)c(-c2ccc([N+](=O)[O-])cc2)c1CNC(C)(C)C | 205 µM
50 | CCOC(=O)c1nn(-c2ccccc2)c(-c2ccc([N+](=O)[O-])cc2)c1CNC(C)(C)C | 168 µM
51 | CCOC(=O)c1nn(-c2ccccc2)c(-c2ccc(OC)cc2)c1CNC(C)(C)C | 244 µM
52 | CCOC(=O)c1nn(-c2ccccc2)c(-c2ccc(Cl)cc2)c1CNC(C)(C)C | > 559 µM
53 | CCOC(=O)c1nn(-c2ccc(Cl)cc2)c(-c2ccc(Br)cc2)c1CNC(C)(C)C | > 476 µM
54 | CCOC(=O)c1nn(-c2ccc(Cl)cc2)c(-c2ccc(OC)cc2)c1CNC(C)(C)C | > 524 µM
55 | CCOC(=O)c1nn(-c2ccccc2)c(-c2ccc(Br)cc2)c1CNC(C)(C)C | 74.2 µM
56 | CCOC(=O)c1nn(-c2ccccc2)c(-c2ccc(F)cc2)c1CNC(C)(C)C | 517 µM

Tested on: K562
Assay: Anticancer activity against human K562 cells assessed as cell growth inhibition measured after 48 hrs by sulforhodamine B assay
Format: functional
Conditions: 48 h

Row | Compound | GI50
57 | CCOC(=O)c1nn(-c2ccc(Cl)cc2)c(-c2ccc([N+](=O)[O-])cc2)c1CNC(C)(C)C | 14.8 µM
58 | CCOC(=O)c1nn(-c2ccccc2)c(-c2ccc([N+](=O)[O-])cc2)c1CNC(C)(C)C | 191 µM
59 | CCOC(=O)c1nn(-c2ccccc2)c(-c2ccc(OC)cc2)c1CNC(C)(C)C | 29.8 µM
60 | CCOC(=O)c1nn(-c2ccccc2)c(-c2ccc(Cl)cc2)c1CNC(C)(C)C | > 559 µM
61 | CCOC(=O)c1nn(-c2ccc(Cl)cc2)c(-c2ccc(Br)cc2)c1CNC(C)(C)C | > 476 µM
62 | CCOC(=O)c1nn(-c2ccc(Cl)cc2)c(-c2ccc(OC)cc2)c1CNC(C)(C)C | > 524 µM
63 | CCOC(=O)c1nn(-c2ccccc2)c(-c2ccc(Br)cc2)c1CNC(C)(C)C | 22 µM
64 | CCOC(=O)c1nn(-c2ccccc2)c(-c2ccc(F)cc2)c1CNC(C)(C)C | 161 µM

Tested on: PC-3
Assay: Anticancer activity against human PC-3 cells assessed as cell growth inhibition measured after 48 hrs by sulforhodamine B assay
Format: functional
Conditions: 48 h

Row | Compound | GI50
65 | CCOC(=O)c1nn(-c2ccc(Cl)cc2)c(-c2ccc([N+](=O)[O-])cc2)c1CNC(C)(C)C | 304 µM
66 | CCOC(=O)c1nn(-c2ccccc2)c(-c2ccc([N+](=O)[O-])cc2)c1CNC(C)(C)C | 128 µM
67 | CCOC(=O)c1nn(-c2ccccc2)c(-c2ccc(OC)cc2)c1CNC(C)(C)C | 245 µM
68 | CCOC(=O)c1nn(-c2ccccc2)c(-c2ccc(Cl)cc2)c1CNC(C)(C)C | > 559 µM
69 | CCOC(=O)c1nn(-c2ccc(Cl)cc2)c(-c2ccc(Br)cc2)c1CNC(C)(C)C | > 476 µM
70 | CCOC(=O)c1nn(-c2ccc(Cl)cc2)c(-c2ccc(OC)cc2)c1CNC(C)(C)C | > 524 µM
71 | CCOC(=O)c1nn(-c2ccccc2)c(-c2ccc(Br)cc2)c1CNC(C)(C)C | 15.9 µM
72 | CCOC(=O)c1nn(-c2ccccc2)c(-c2ccc(F)cc2)c1CNC(C)(C)C | 82.1 µM

— ChEMBL document CHEMBL4673302, “Efficient synthesis and antitumor evaluation of 4-aminomethyl-N-arylpyrazoles: Discovery of potent and selective agents for ovarian cancer” (Bioorg Med Chem, 2021)
